Assay results taken from patent US20120258975A1, “Potent Small Molecule Inhibitors of Autophagy, and Methods of Use Thereof” (Shanghai Institute of Organic Chemistry, priority 2009, published 2012).

Assays:
LC3-GFP (H4-LC3 cells) = assay: LC3-GFP image-based autophagy assay in H4-LC3 cells; format: cell-based; details: with rapamycin; MY-5445 30 μM, dipyridamole 80 μM, IBMX 100 μM, sildenafil 10 μM
Method: FIG. 1 relates to identification of a small molecule inhibitor of autophagy by an image-based screen. A, structure of MBCQ. B, Quantitative analysis of LC3-GFP spot number per cell (a), spot size per cell (b), spot intensity per cell (c). The data are expressed as % of control vehicle treated cells. H4-LC3 cells were seeded in 96 well-plates and incubated with vehicle control (1% DMSO), 0.2 μM rapamycin with or without 10 μM MBCQ for indicated time, fixed with 4% paraformaldehyde and stained with 4,6-diamidino-2-phenylindole (DAPI, 3 μg/ml). Images of 1000 cells for each compound treatment were analyzed by ArrayScan HCS 4.0 Reader with a 20× objective (Cellomics, Pittsburgh, Pa.).
(§1) FIG. 14 depicts MBCQ derivatives that can inhibit autophagy. To calculate EC50, H4-LC3 cells were seeded in 96 well-plates and cultured in the presence of compounds in different concentration for 24 h, and then fixed with polyformate and stained with 4,6-diamidino-2-phenylindole (DAPI, 3 μg/ml). Images data were collected with an ArrayScan HCS 4.0 Reader with a 20× objective (Cellomics, Pittsburgh, Pa.) for DAPI labeled nuclei and GFP-LC3, a marker for autophagy. The Spot Detector Bio-Application was used to acquire and analyze the images after optimization. Images of 1000 cells for each compound treatment were analyzed to obtain average cell number per field, fluorescence spot number, area and intensity per cell. DMSO and rapamycin were used as negative or positive control, respectively. The percentages of changes of LC3-GFP were calculated by dividing with that of DMSO treated samples. Each treatment was done in triplicate for mean and SD. The images were also analyzed using a conventional fluorescence microscope for visual inspection. The experiments were repeated three times
as §1, with “15” for “14”, “with reduced or no ability to” for “that can”, “times.” for “times”
To explore the mechanism of autophagy and identify additional small molecules that can activate it, a high-throughput image-based screen for autophagy regulators was developed. This system takes advantage of the localization of light chain 3 coupled to GFP (LC3-GFP) to autophagosomal membrane upon induction of autophagy (Zhang, L., Yu, J., Pan, H., Hu, P., Hao, Y., Cai, W., Zhu, H., Yu, A. D., Xie, X., Ma, D., et al. (2007). Small molecule regulators of autophagy identified by an image-based high-throughput screen. Proc Natl Acad Sci USA 104, 19023-19028). […] Compounds that increase cellular levels of LC3-GFP, however, are not necessarily able to increase degradative activity of autophagy. Instead, the increases of LC3-GFP may be associated with cell death or may be a result of lysosomal defect and thus associated with blockage of autophagy. […]

[1] = tested on: LC3-GFP (H4-LC3-GFP cells); assay: Starvation induced autophagy in H4-LC3-GFP cells; format: cell-based; details: Hanks buffer 1 h; MBCQ 5 μM, 3-MA 10 mM, wortmannin 0.1 μM
Source text: FIG. 2 depicts results relating to MBCQ inhibition of autophagy induced by starvation. Quantitative measurement of LC3-GFP spot number per cell (a), spot size per cell (b) and spot intensity per cell (c) using HCS and expressed as % of control.

bax/bak DKO MEF cells = assay: Etoposide induced cell death of bax/bak DKO cells; format: cell-based, mouse; details: etoposide 8 μM; MBCQ 10 μM, spautin 10 μM, 3-MA 10 mM; 8 h
Method: C, cells were collected for western blotting using anti-LC3 antibody. α-tubulin was used as a control. D-F, Bax/bak DKO cells were treated with spautin (10 μM) or indicated concentration, in the presence of or absent etoposide (8 μM) for 8 h or indicated time. […] F, Cells were collected for western blotting using anti-LC3 antibody. α-tubulin was used as a control.
Autophagy has been proposed to contribute to cell death in a number of apoptotic deficient cell types. For example, bax/bak double deficient mouse embryonic fibroblast cells (DKO mefs) are highly resistant to apoptosis (Wei, M. C., Zong, W. X., Cheng, E. H., Lindsten, T., Panoutsakopoulou, V., Ross, A. J., Roth, K. A., MacGregor, G. R., Thompson, C. B., and Korsmeyer, S. J. (2001). Proapoptotic BAX and BAK: a requisite gateway to mitochondrial dysfunction and death. Science 292, 727-730).

Vps34 complexes = assay: Levels of endogenous Beclin1, Vps34, Atg14L in H4 and 293T cells (western blot); details: H4 cells and 293T cells; 10 μM; 3-MA 10 mM
Method: Twenty-four hours after the transfection, the cells were treated with indicated compounds for 12 h. The cell lysates were analyzed by western blotting using anti-HA, anti-flag or anti-tubulin. […] The cell lysates were harvested and analyzed by western blotting using: anti-Beclin1, anti-Atg14, anti-Vps34 and anti-UVRAG. Anti-α-tubulin was used as loading controls. […] The cell lysates were harvested and analyzed by western blotting using: anti-Beclin1 and anti-LC3. Anti-α-tubulin was used as loading controls.

PDE5 = PDE5 (Homo sapiens, UniProt O76074); assay: Determination of % inhibition of PDE5 activity; format: biochemical; details: for inhibition at 0.2 µM: Concentration = 0.2 μM; for inhibition at 2 µM: Concentration = 2 μM; for inhibition at 20 µM: Concentration = 20 μM

Compound	activity on autophagy (LC3-GFP (H4-LC3 cells))	inhibition at 0.2 µM (PDE5) [%]	inhibition at 2 µM (PDE5) [%]	inhibition at 20 µM (PDE5) [%]	also measured
OCCN(CCO)c1nc(N2CCCCC2)c2nc(N(CCO)CCO)nc(N3CCCCC3)c2n1 [dipyridamole]	None of the PDE5 inhibitors tested	–	–	–	–
Cn1cnc(N)c2ncnc1-2 [3-MA, 3-methyladenine]	–	–	–	–	starvation induced autophagy (LC3-GFP spot number, size, intensity) [1]: inhibited; cell death induced by etoposide (bax/bak DKO MEF cells): inhibits etoposide induced death; levels of endogenous Beclin1, Vps34 and Atg14L (Vps34 complexes): no effect on endogenous Beclin1
Clc1cccc(Nc2nnc(-c3ccccc3)c3ccccc23)c1 [MY-5445]	None of the PDE5 inhibitors tested	–	–	–	–
CCCOc1ccccc1-c1nc2nn[nH]c2c(=O)[nH]1 [Zaprinast]	–	38	88.4	102	–
CCCc1nn(C)c2c(=O)[nH]c(-c3cc(S(=O)(=O)N4CCN(C)CC4)ccc3OCC)nc12 [Sildenafil]	None of the PDE5 inhibitors tested	96.5	98.8	102	–
CC(C)Cn1c(=O)n(C)c(=O)c2[nH]cnc21 [IBMX]	None of the PDE5 inhibitors tested	–	–	–	–
